Assays:
Type in all cases: cell-based
[1] = test system: lipopolysaccharide (LPS) induced synovial fibroblast (SF) cells; assay: IL-1 gene expression relative to GAPDH in LPS induced synovial fibroblast cells incubated with sesamin (RT-PCR), Example Five
Description: Experiments were conducted to evaluate the effect of particular phytochemical compositions provided by the present disclosure on IL-1 gene expression in specified cells found within a body of a living organism. The cells used for the experiment described in […] are lipopolysaccharide (LPS) induced synovial fibroblast (SF) cells. The SF cells were isolated from synovium tissue (also referred to as synovial tissue) using a standard cell isolation technique or method that is known to a person of ordinary skill in the art. In addition, LPS is obtained from a commercial source, for example Sigma-Aldrich Co. It is understood by a person having ordinary skill in the art that the SF cells may be substituted with other immune cells found within the body, for example lymphocytes, monocytes, and macrophages. […]
The amount or level of IL-1 gene expression in the SF cells was measured or determined using methods or techniques known to a person having ordinary skill in the relevant art. In example five, Real-Time PCR (RT-PCR) was used for quantifying the amount of IL-1 gene expression in the SF cells. IL-1beta or IL-1β specific primers were used during RT-PCR, thereby facilitating or effectuating the quantification of IL-1β gene expression in the SF cells. […]

[2] = test system: LPS induced peripheral blood mononuclear cells (PBMCs); assay: IL-2 gene expression relative to GAPDH in LPS induced PBMCs incubated with sesamin (RT-PCR), Example Seven; conditions: culture 4, 1.0 ug/ml of sesamin; greatest increase
Description: (§1) Experiments were conducted to evaluate the effect of particular phytochemical compositions provided by the present disclosure on IL-2 gene expression in specified cells found within a body of a living organism. Cells used for the experiment described in this example are LPS induced peripheral blood mononuclear cells (PBMCs). It is understood by a person having ordinary skill in the art that the PBMCs may be substituted for other immune cells found within the body. It is also understood by a person having ordinary skill in the art that other inducing substances or chemicals besides LPS, for example viral antigens, may also be used for inducing the PBMCs.
To conduct the experiments of example seven, PBMCs were isolated and prepared using methods or techniques known to a person having ordinary skill in the art. An exemplary method or techniques is the differential density gradient centrifugation technique, the steps or process steps of which is known to a person of ordinary skill in the art. In addition, LPS can be obtained from a commercial source, for example Sigma-Aldrich Co. […]
The amount or level of IL-2 gene expression in the PBMCs was measured or determined using methods or techniques known to a person having ordinary skill in the relevant art. In example three, Real-Time PCR (RT-PCR) was used for quantifying the amount of IL-2 gene expression in the PBMCs.

[3] = test system: LPS induced peripheral blood mononuclear cells (PBMCs); assay: IL-1 released by LPS induced PBMCs incubated with sesamin (ELISA), Example Six
Description: as §1, with “quantity of IL-1 released by” for “IL-2 gene expression in”
To conduct the experiments of example six, PBMCs were isolated and prepared using methods or techniques known to a person having ordinary skill in the art. An exemplary method or techniques is the differential density gradient centrifugation technique, the steps or process steps of which is known to a person of ordinary skill in the art. In addition, LPS can be obtained from a commercial source, for example Sigma-Aldrich Co.
The PBMCs are cultured in 10% fetal calf serum in RPMI1640 medium. Seven cultures of PBMCs, i.e. culture 1 to culture 7, were prepared. The contents of each of cultures 1 to 7 were as follows:
(i) Culture 1: First control culture. Includes a predetermined volume of PBMCs (1×10^5 PBMCs/culture);
(ii) Culture 2: Second control culture. Includes the predetermined volume of PBMCs (1×10^5 PBMCs/culture) and LPS at a concentration of 20 ng/ml;
(iii) Culture 3: Includes the predetermined volume of the specified concentration of PBMCs, LPS at a concentration of 20 ng/ml, and a volume of phytochemical composition providing 0.1 uM of sesamin; […]
After a predetermined time period, quantity of IL-1 in each of cultures 1 to 7 was quantified using the ELISA technique (e.g., Biotrak Easy ELISA Aersham). The quantity of IL-1 detected by the ELISA technique in each of cultures 1 to 7 reflects the quantity of IL-1 released by the PBMCs of that culture.

SMILES: c1cc2c(cc1[C@H]1OC[C@H]3[C@@H]1CO[C@@H]3c1ccc3c(c1)OCO3)OCO2 [sesamin]
- IL-1 gene expression relative to GAPDH decreased ([1]; culture 4, 0.025 mM sesamin, vs control culture 3, minimal decrease): approximately 20%
- IL-1 gene expression relative to GAPDH decreased ([1]; culture 9, 1.0 mM sesamin, vs control culture 2, maximal decrease): approximately 65%
- increase in IL-2 gene expression relative GAPDH [2]: approximately 220%
- decrease in quantity of IL-1 ([3]; culture 3, 0.1 uM sesamin, vs control culture 1, minimum decrease): approximately 5%
- decrease in quantity of IL-1 ([3]; culture 4, 0.5 uM sesamin, vs control culture 1, minimum decrease): approximately 5%
- decrease in quantity of IL-1 ([3]; culture 7, 10 uM sesamin, vs control culture 2, maximum decrease): approximately 35%

Reference: patent US20120172329A1, “PHYTOCHEMICAL COMPOSITIONS INCLUDING XANTHONES FOR ANTI-INFLAMMATORY, ANTI-CYTOKINE STORM, AND OTHER USES” (Thailand Excellence Center for Tissue Engineering, priority 2009, published 2012)
